This is an account of results in PMC3612716 (British Journal of Clinical Pharmacology, 2012).

Data set [1] concerns healthy subjects. The data set is described as follows: Safety and tolerability. In kind it is in vivo, human. As to conditions: ITT population, by treatment.
For data set [2], the system named is healthy subjects. The experiment in a line: Thorough QT study: ECG. As to conditions: positive control.
Data set [3] has as its system patients with type 2 diabetes / healthy subjects. As to conditions: previous findings; cited from earlier work.

For `COc1c(N2C[C@@H]3CCCN[C@@H]3C2)c(F)cc2c(=O)c(C(=O)O)cn(C3CC3)c12` [moxifloxacin], the “subjects experiencing adverse events” value in the data set on healthy subjects [1] worked out at 23%. The “LS mean ΔΔQTcP (two-sided 90% CI)” value in the data set on healthy subjects [2] (1 h following single 400 mg oral dose) is on record as 5.47 (2.82, 8.12) ms; with healthy subjects [2] (2 h following single 400 mg oral dose) it was 10.56 (8.46, 12.67) ms; in the data set with healthy subjects [2] (3 h following single 400 mg oral dose), 10.93 (8.71, 13.13).
Take liraglutide: the “changes in QTc at therapeutic concentrations” value in data set [3] is on record as “no clinically meaningful changes in QTc”.
